Structures can show the parent of a compound that is named as a salt.
Target: BACE1 (Homo sapiens (Human), UniProt P56817)
Experiment: BACE1 Cell-Free Assay (fluorescence polarization)
Assay type: biochemical
Conditions: geometric mean of 2-4 determinations unless otherwise indicated (b: ≧5; c: single determination); read-out: BACE1 Cell-free Assay IC50
Excerpt: This assay measures the inhibition of the beta-secretase enzyme as it cleaves a non-native peptide.
A synthetic APP substrate that can be cleaved by beta-secretase having N-terminal biotin and made fluorescent by the covalent attachment of Oregon Green at the Cys residue is used to assay beta-secretase activity in the presence or absence of the inhibitory compounds. […] The BACE1 enzyme is affinity purified material from conditioned media of CHO-K1 cells that have been transfected with a soluble BACE construct (BACE1deltaTM96His). […] Plates are covered and incubated for 3 hours at 37° C. […] The activity of the beta-secretase enzyme is detected by changes in the fluorescence polarization that occur when the substrate is cleaved by the enzyme.

Sequence of BACE1 (P56817 46-457): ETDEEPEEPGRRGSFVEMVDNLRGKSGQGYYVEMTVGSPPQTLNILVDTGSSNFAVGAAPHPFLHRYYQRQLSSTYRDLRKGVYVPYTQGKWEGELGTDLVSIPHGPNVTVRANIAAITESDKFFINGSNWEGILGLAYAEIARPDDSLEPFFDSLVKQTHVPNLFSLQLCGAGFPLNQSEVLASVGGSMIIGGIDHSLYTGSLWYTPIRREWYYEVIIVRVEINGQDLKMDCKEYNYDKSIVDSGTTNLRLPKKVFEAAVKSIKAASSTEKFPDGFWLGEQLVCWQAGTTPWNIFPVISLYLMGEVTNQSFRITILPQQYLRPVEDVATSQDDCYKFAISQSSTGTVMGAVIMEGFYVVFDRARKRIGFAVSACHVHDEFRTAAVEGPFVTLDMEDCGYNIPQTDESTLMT

IC50 [µM]	SMILES
3.94	C[C@H]1C[C@H]2CSC(N)=N[C@@]2(c2nc(NC(=O)c3cnn(C)c3)cs2)CO1 [Example 63, N-{2-[(4aR,6S,8aR)-2-amino-6-methyl-4,4a,5,6-tetrahydropyrano[3,4-d][1,3]thiazin-8a(8H)-yl]-1,3-thiazol-4-yl}-1-methyl-1H-pyrazole-4-carboxamide, trifluoroacetate salt]
2.62	Cc1cc(C(=O)Nc2csc([C@]34CO[C@@H](C)C[C@H]3CSC(N)=N4)n2)no1 [Example 64, N-{2-[(4aR,6S,8aR)-2-amino-6-methyl-4,4a,5,6-tetrahydropyrano[3,4-d][1,3]thiazin-8a(8H)-yl]-1,3-thiazol-4-yl}-5-methyl-1,2-oxazole-3-carboxamide, trifluoroacetate salt]
5.04	Cc1cc(C(=O)Nc2csc([C@]34CO[C@@H](C)C[C@H]3CSC(N)=N4)n2)on1 [Example 67, N-{2-[(4aR,6S,8aR)-2-amino-6-methyl-4,4a,5,6-tetrahydropyrano[3,4-d][1,3]thiazin-8a(8H)-yl]-1,3-thiazol-4-yl}-3-methyl-1,2-oxazole-5-carboxamide, trifluoroacetate salt]
10.4	CC(C)c1cc(C(=O)Nc2csc([C@]34CO[C@@H](C)C[C@H]3CSC(N)=N4)n2)n(C)n1 [Example 70, N-{2-[(4aR,6S,8aR)-2-amino-6-methyl-4,4a,5,6-tetrahydropyrano[3,4-d][1,3]thiazin-8a(8H)-yl]-1,3-thiazol-4-yl}-1-methyl-3-(propan-2-yl)-1H-pyrazole-5-carboxamide, trifluoroacetate salt]
9.26	CCc1cc(C(=O)Nc2csc([C@]34CO[C@@H](C)C[C@H]3CSC(N)=N4)n2)on1 [Example 71, N-{2-[(4aR,6S,8aR)-2-amino-6-methyl-4,4a,5,6-tetrahydropyrano[3,4-d][1,3]thiazin-8a(8H)-yl]-1,3-thiazol-4-yl}-3-ethyl-1,2-oxazole-5-carboxamide, trifluoroacetate salt]
7.48	CCn1cc(C(=O)Nc2csc([C@]34CO[C@@H](C)C[C@H]3CSC(N)=N4)n2)cn1 [Example 72, N-{2-[(4aR,6S,8aR)-2-amino-6-methyl-4,4a,5,6-tetrahydropyrano[3,4-d][1,3]thiazin-8a(8H)-yl]-1,3-thiazol-4-yl}-1-ethyl-1H-pyrazole-4-carboxamide, trifluoroacetate salt]
12.4	Cc1cc(C(=O)Nc2csc([C@]34CO[C@@H](C)C[C@H]3CSC(N)=N4)n2)nn1C [Example 73, N-{2-[(4aR,6S,8aR)-2-amino-6-methyl-4,4a,5,6-tetrahydropyrano[3,4-d][1,3]thiazin-8a(8H)-yl]-1,3-thiazol-4-yl}-1,5-dimethyl-1H-pyrazole-3-carboxamide, trifluoroacetate salt]
28.1	C[C@H]1C[C@H]2CSC(N)=N[C@@]2(c2nc(NC(=O)c3cn(C)nn3)cs2)CO1 [Example 76, N-{2-[(4aR,6S,8aR)-2-amino-6-methyl-4,4a,5,6-tetrahydropyrano[3,4-d][1,3]thiazin-8a(8H)-yl]-1,3-thiazol-4-yl}-1-methyl-1H-1,2,3-triazole-4-carboxamide, trifluoroacetate salt]
3.38	C[C@H]1C[C@H]2CSC(N)=N[C@@]2(c2nc(NC(=O)c3cc(Cl)n(C)n3)cs2)CO1 [Example 81, N-{2-[(4aR,6S,8aR)-2-amino-6-methyl-4,4a,5,6-tetrahydropyrano[3,4-d][1,3]thiazin-8a(8H)-yl]-1,3-thiazol-4-yl}-5-chloro-1-methyl-1H-pyrazole-3-carboxamide]

The remaining lines, values behind:

SMILES	IC50 [µM]
C[C@H]1C[C@H]2CSC(N)=N[C@@]2(c2nc(NC(=O)c3cnc(OCC(C)(F)F)cn3)cs2)CO1 [Example 58, N-{2-[(4aR,6S,8aR)-2-amino-6-methyl-4,4a,5,6-tetrahydropyrano[3,4-d][1,3]thiazin-8a(8H)-yl]-1,3-thiazol-4-yl}-5-(2,2-difluoropropoxy)pyrazine-2-carboxamide]	0.161
Cc1nc(C)c(C(=O)Nc2csc([C@]34CO[C@@H](C)C[C@H]3CSC(N)=N4)n2)o1 [Example 59, N-{2-[(4aR,6S,8aR)-2-amino-6-methyl-4,4a,5,6-tetrahydropyrano[3,4-d][1,3]thiazin-8a(8H)-yl]-1,3-thiazol-4-yl}-2,4-dimethyl-1,3-oxazole-5-carboxamide, trifluoroacetate salt]	0.74
C[C@H]1C[C@H]2CSC(N)=N[C@@]2(c2nc(NC(=O)c3cn(C)nc3C(F)(F)F)cs2)CO1 [Example 60, N-{2-[(4aR,6S,8aR)-2-amino-6-methyl-4,4a,5,6-tetrahydropyrano[3,4-d][1,3]thiazin-8a(8H)-yl]-1,3-thiazol-4-yl}-1-methyl-3-(trifluoromethyl)-1H-pyrazole-4-carboxamide, trifluoroacetate salt]	3.84
CC(C)n1cnc(C(=O)Nc2csc([C@]34CO[C@@H](C)C[C@H]3CSC(N)=N4)n2)c1 [Example 61, N-{2-[(4aR,6S,8aR)-2-amino-6-methyl-4,4a,5,6-tetrahydropyrano[3,4-d][1,3]thiazin-8a(8H)-yl]-1,3-thiazol-4-yl}-1-(propan-2-yl)-1H-imidazole-4-carboxamide, trifluoroacetate salt]	1.83
CC(C)Cc1cc(C(=O)Nc2csc([C@]34CO[C@@H](C)C[C@H]3CSC(N)=N4)n2)no1 [Example 62, N-{2-[(4aR,6S,8aR)-2-amino-6-methyl-4,4a,5,6-tetrahydropyrano[3,4-d][1,3]thiazin-8a(8H)-yl]-1,3-thiazol-4-yl}-5-(2-methylpropyl)-1,2-oxazole-3-carboxamide, trifluoroacetate salt]	9.69
CC(C)Cc1cc(C(=O)Nc2csc([C@]34CO[C@@H](C)C[C@H]3CSC(N)=N4)n2)nn1C [Example 65, N-{2-[(4aR,6S,8aR)-2-amino-6-methyl-4,4a,5,6-tetrahydropyrano[3,4-d][1,3]thiazin-8a(8H)-yl]-1,3-thiazol-4-yl}-1-methyl-5-(2-methylpropyl)-1H-pyrazole-3-carboxamide, trifluoroacetate salt]	51
C[C@H]1C[C@H]2CSC(N)=N[C@@]2(c2nc(NC(=O)c3ccncn3)cs2)CO1 [Example 66, N-{2-[(4aR,6S,8aR)-2-amino-6-methyl-4,4a,5,6-tetrahydropyrano[3,4-d][1,3]thiazin-8a(8H)-yl]-1,3-thiazol-4-yl}pyrimidine-4-carboxamide, trifluoroacetate salt]	0.575
Cc1cnc(C(=O)Nc2csc([C@]34CO[C@@H](C)C[C@H]3CSC(N)=N4)n2)cn1 [Example 68, N-{2-[(4aR,6S,8aR)-2-amino-6-methyl-4,4a,5,6-tetrahydropyrano[3,4-d][1,3]thiazin-8a(8H)-yl]-1,3-thiazol-4-yl}-5-methylpyrazine-2-carboxamide, trifluoroacetate salt]	2.11
C[C@H]1C[C@H]2CSC(N)=N[C@@]2(c2nc(NC(=O)c3ncnn3C)cs2)CO1 [Example 74, N-{2-[(4aR,6S,8aR)-2-amino-6-methyl-4,4a,5,6-tetrahydropyrano[3,4-d][1,3]thiazin-8a(8H)-yl]-1,3-thiazol-4-yl}-1-methyl-1H-1,2,4-triazole-5-carboxamide, trifluoroacetate salt]	4.56
C[C@H]1C[C@H]2CSC(N)=N[C@@]2(c2nc(NC(=O)c3cn(C)cn3)cs2)CO1 [Example 75, N-{2-[(4aR,6S,8aR)-2-amino-6-methyl-4,4a,5,6-tetrahydropyrano[3,4-d][1,3]thiazin-8a(8H)-yl]-1,3-thiazol-4-yl}-1-methyl-1H-imidazole-4-carboxamide, trifluoroacetate salt]	18.2
C[C@H]1C[C@H]2CSC(N)=N[C@@]2(c2nc(NC(=O)c3ccon3)cs2)CO1 [Example 77, N-{2-[(4aR,6S,8aR)-2-amino-6-methyl-4,4a,5,6-tetrahydropyrano[3,4-d][1,3]thiazin-8a(8H)-yl]-1,3-thiazol-4-yl}-1,2-oxazole-3-carboxamide, trifluoroacetate salt]	0.777
C[C@H]1C[C@H]2CSC(N)=N[C@@]2(c2nc(NC(=O)C3CC(F)(F)C3)cs2)CO1 [Example 78, N-{2-[(4aR,6S,8aR)-2-amino-6-methyl-4,4a,5,6-tetrahydropyrano[3,4-d][1,3]thiazin-8a(8H)-yl]-1,3-thiazol-4-yl}-3,3-difluorocyclobutanecarboxamide, trifluoroacetate salt]	1.49
C[C@H]1C[C@H]2CSC(N)=N[C@@]2(c2nc(NC(=O)c3ncccn3)cs2)CO1 [Example 79, N-{2-[(4aR,6S,8aR)-2-amino-6-methyl-4,4a,5,6-tetrahydropyrano[3,4-d][1,3]thiazin-8a(8H)-yl]-1,3-thiazol-4-yl}pyrimidine-2-carboxamide, trifluoroacetate salt]	1.08
C[C@H]1C[C@H]2CSC(N)=N[C@@]2(c2nc(NC(=O)c3cnc(C4CC4)cn3)cs2)CO1 [Example 82, N-{2-[(4aR,6S,8aR)-2-amino-6-methyl-4,4a,5,6-tetrahydropyrano[3,4-d][1,3]thiazin-8a(8H)-yl]-1,3-thiazol-4-yl}-5-cyclopropylpyrazine-2-carboxamide, hydrochloride salt]	1.08
C[C@H]1C[C@H]2CSC(N)=N[C@@]2(c2nc(NC(=O)c3cnn(C(F)F)c3)cs2)CO1 [Example 83, N-{2-[(4aR,6S,8aR)-2-amino-6-methyl-4,4a,5,6-tetrahydropyrano[3,4-d][1,3]thiazin-8a(8H)-yl]-1,3-thiazol-4-yl}-1-(difluoromethyl)-1H-pyrazole-4-carboxamide]	0.671
